Drawing on patent US9493479B2 (Merck Sharp & Dohme Corp., priority 2013, dated 2016), this text covers IC50 for 7 compounds.

One test deals with T1, WT-Integrase (Human immunodeficiency virus type 1 group M subtype B, UniProt P04585).
T1 construct: assembled PVT SPA beads with WT-Integrase and boitinylated DNA
The test can be described thus: InSTANT integrase DNA strand transfer functional assay. It counts as biochemical, HIV. Conditions: SPA strand transfer, 15 minutes at 37° C. Here is the method: InSTANT is an integrase DNA strand transfer functional assay used to determine potency of InSTIs, which was carried out as described below. 8 μl of SPA buffer (27.8 mM Hepes, 27.8 mM MgCl2, 111.1 μg/mL BSA, 5.56 mM βME, and 57.1 mM NaCl) containing 5 nM 3H-labeled target DNA (prepared separately) and 10 μl of assembled PVT SPA beads with WT-Integrase and boitinylated DNA (prepared separately) were added to the assay plate which contained 0.4 μl of test compound(s) or positive or negative control compound(s) per well. The assay plate was shaken for 1 minute on HT-91002 1.0 MM shaker and then was sealed and incubated for 15 minutes at 37° C. The assay reaction was quenched by adding 4 μl of 1.25 M EDTA to each well of the assay plate with mixing. After incubating the plate at room temperature for 1 hour, the quenched plate was spun at 200 g for 1 minute and read on TopCount (1 minute per well). Percent inhibition was calculated by [1−(Sample−Min)/(Max−Min)]*100. Compound potency IP or IC50 was determined by a 4-parameter dose response curve analysis.

The test system of a further test is HIV-1 (NL4-3 strain). Put plainly: ViKinG (Viral Kinetics GFP Reporter) assay for inhibition of HIV replication. It counts as cell-based. The following applies: Human immunodeficiency virus 1, NL43; MT4-GFP cells infected with HIV-1 NL4-3; RPMI + 10% or 50% NHS (not given); infected cells at 48 h / 24 h. The text has this:
The ViKinG (Viral Kinetics GFP Reporter) assay is an in vitro kinetic assay that employs the MT4-gag-GFP reporter cell line (Wang et al., “Assessment of the susceptibility of mutant HIV-1 to antiviral agents.” J Virological Methods 165:230-37 (2010)) to quantify the number of new cells infected in each round of replication. The purpose of the ViKinG assay is to identify agents that inhibit HIV progression. Briefly, HIV infection results in tat transactivation of the stably expressed HIV LTR promoter to drive gagGFP expression. Thus, an increase in the number of GFP-MT4 cells results following HIV infection.
MT4-GFP cells (250,000 cells/m1) were bulk-infected with HIV-1 (NL4-3 strain) at low multiplicity of infection (MOT) in RPMI+10% FBS for 24 hours. Cells were then washed once in RPMI+10% FBS and resuspended RPMI+10% or 50% normal human serum (NHS). Test compounds were serial-diluted in DMSO on an ECHO® liquid handling platform (Labcyte Corp., Sunnyvale, Calif.), along with a triple drug control (integrase, protease and NNRTI compounds). The infected MT4-GFP cells were added to a 384-well poly-D-lysine coated black plate with clear bottom in which the diluted test compounds were placed. The cells were seeded at 8,000 cells per well and the final DMSO concentration was 0.4%. The infected cells (Green GFP cells) were quantified at both 24 and 48 hours post incubation using Acumen® eX3 (TTP Labtech Ltd., Hertfordshire, United Kingdom). Viral reproductive ratio (R0) was determined using the number of infected cells at 48 hours divided by the number of infected cells at 24 hours. Percent viral growth inhibition was calculated by [1−(R−Rtripledrug)/(RDMSO−Rtripledrug)]*100. Compound potency IP or IC50 was determined by a 4-parameter dose response curve analysis.

For `CC1=CCOCc2c1c(=O)c(O)c1n2CCN(Cc2ccc(F)c(Cl)c2)C1=O` [Compound 4, 9-(3-chloro-4-fluorobenzyl)-7-hydroxy-5-methyl-10,11-dihydro-1H-oxepino[4′,3′:5,6]pyrido[1,2-a]pyrazine-6,8(3H,9H)-dione], the IC50 at WT-Integrase stood at 18 nM; with HIV-1 (NL4-3 strain), 91 nM.

In the case of `O=C1c2c(O)c(=O)c3c(n2CCN1Cc1ccc(F)c(Cl)c1)COCC=C3` [Compound 2, 9-(3-chloro-4-fluorobenzyl)-7-hydroxy-10,11-dihydro-1H-oxepino[4′,3′:5,6]pyrido[1,2-a]pyrazine-6,8(3H,9H)-dione], the IC50 against WT-Integrase came out at 11 nM; in the test with HIV-1 (NL4-3 strain), 76 nM.

For the compound `CC1CCN(C(=O)C(=O)N(C)C)Cc2c1c(=O)c(O)c1n2CCN(Cc2ccc(F)c(Cl)c2)C1=O` (centres unmarked) [Compound 18, 2-(9-(3-chloro-4-fluorobenzyl)-7-hydroxy-5-methyl-6,8-dioxo-4,5,8,9,10,11-hexahydropyrazino[1′,2′:1,6]pyrido[2,3-c]azepin-2(1H,3H,6H)-yl)-N,N-dimethyl-2-oxoacetamide], the IC50 on WT-Integrase worked out at 20 nM; in the test on HIV-1 (NL4-3 strain), 3660 nM.

Turning to `CCC1COCc2c1c(=O)c(O)c1n2CCN(Cc2ccc(F)cc2)C1=O` (centres unmarked) [Compound 6], the results for the IC50 on WT-Integrase and with HIV-1 (NL4-3 strain) were 21 nM and 492 nM, respectively.

`O=C1c2c(O)c(=O)c3c(n2CCN1Cc1ccc(F)c(Cl)c1)COC31CCCC1O` (centres unmarked) [Compound 14, 7′-(3-chloro-4-fluorobenzyl)-2,5′-dihydroxy-8′,9′-dihydrospiro[cyclopentane-1,3′-furo[3′,4′:5,6]pyrido[1,2-a]pyrazine]-4′,6′(1′H,7′H)-dione]: the IC50 was determined as 12 nM on WT-Integrase and 144 nM with HIV-1 (NL4-3 strain).

Consider `CC1COCc2c1c(=O)c(O)c1n2CCN(Cc2ccc(F)c(Cl)c2)C1=O` (centres unmarked) [Compound 25], for which the IC50 was determined as 21 nM against WT-Integrase and 351 nM with HIV-1 (NL4-3 strain).

As to `Cc1cn(C)c(=O)c2c1c(=O)c(O)c1n2CCN(Cc2ccc(F)c(Cl)c2)C1=O` [Compound 22, 8-(3-chloro-4-fluorobenzyl)-6-hydroxy-2,4-dimethyl-9,10-dihydro-1H-pyrazino[1,2-a][1,7]naphthyridine-1,5,7(2H,8H)-trione], the IC50 was determined as 1 nM against WT-Integrase and 456 nM with HIV-1 (NL4-3 strain).

As usually defined, the IC50 is the concentration that inhibits the measured activity by half.
